Consider one compound from patent publication US20050064521A1, “In vitro assay for evaluation of angiogenic effects” (TUNGHAI UNIVERSITY, priority 2003, published 2005).

For assay [1], the system named is endothelial cells. As to the kind of experiment: Collapse of the three-dimensional collagen fiber gel, trypan blue absorbance measurement. The format is cell-based, Sprague-Dawley (SD) rats. The protocol:
(§1) Three-dimensional collagen fiber gel: The dry collagen fiber was extract from tails of Sprague-Dawley (SD) rats. The fiber was dissolved in 1 N acetic acid solution in the concentration of 1 g fiber/100 mL acetic acid. The dissolving was performed at 4° C. for 48 hours and followed by dialysis three times with 0.25 N acetic acid solution for 24 hours.
Endothelial cells: SD rats weighting 100 to 200 g were anaesthetized with 0.1 mL/100 g body weight of barbiturate (Nembutal™, Abbott® Laboratories, USA) intraperitoneally. The thoracic aortas were cut and the connective tissues were removed. The vessels were further split into vessel rings thickening about 2 mm, and then cultured the rings in fresh Dulbecco's modified Eagle medium (DMEM) with 10% fetal bovine serum. The culture was maintained at 37° C. with 5% CO2 with changing the medium every two days. After cultured for 5 to 6 days, the cells were harvested. The endothelial cells suitable for the method according to the invention were the second to tenth passage cells. […]
After culturing for 48 hours, the medium was removed and 0.075% trypan blue was added for staining the gels for 30 minutes. The upper solution was then removed and the absorbance of the solution was determined with a spectroscope. […]
It was evidenced that the degree of collapse of the three-dimensional collagen fiber gel is decreased with the addition of EGCg. That results support that the effect of a compound on angiogenesis can be determined by comparing the degrees of collapse of the collagen fiber gels of the models. For instance, the compound is determined to have a stimulatory effect on angiogenesis in case the collapse of the collagen fiber gel of the model added with the compound is increased in comparison with that added without the compound; in contrast, the compound is determined to have an inhibitory effect on angiogenesis in case the collapse of the collagen fiber gel of the model added with the compound is decreased in comparison with that added without the compound.

The test system of assay [2] is endothelial cells. As to the kind of experiment: Tube formation of endothelial cells in three-dimensional collagen fiber gel model, inverted microscopy. The settings on record: cultured for 48 hours. The format is cell-based, Sprague-Dawley (SD) rats. How it is done: as §1
Endothelial cells: SD rats weighting 100 to 200 g were anaesthetized with 0.1 mL/100 g body weight of barbiturate (Nembutal™, Abbott® Laboratories, USA) intraperitoneally. The thoracic aortas were cut and the connective tissues were removed. The vessels were further split into vessel rings thickening about 2 mm, and then cultured the rings in fresh Dulbecco's modified Eagle medium (DMEM) with 10% fetal bovine serum. The culture was maintained at 37° C. with 5% CO2 with changing the medium every two days. After cultured for 5 to 6 days, the cells were harvested. The endothelial cells suitable for the method according to the invention were the second to tenth passage cells.
Model: The endothelial cells (3×10^6) were mixed in the three-dimensional collagen fiber gel and cultured in DMEM containing 5% fetal bovine serum and 10 ng/mL VEGF and 3.08 ng/mL TPA at 37° C. After culturing the endothelial cells for 0, 6, 12, 24, 48, and 72 hours, the morphologies of the cell and gel were both observed with an inverted microscope. […]

Turning to `O=C(O[C@@H]1Cc2c(O)cc(O)cc2O[C@@H]1c1cc(O)c(O)c(O)c1)c1cc(O)c(O)c(O)c1` [EGCg, epigallocatechin gallate], in assay [1] (25 μM EGCg), the “inhibitory effect on angiogenesis (absorbance measurement)” value is “a little inhibitory effect on angiogenesis”. The “collapse of the gel (absorbance measurement)” value in assay [1] (50 μM EGCg) is “nearly totally inhibited”; in assay [1] (100 μM EGCg) it was “nearly no collapse was observed”. The “tubes and cell count versus control without EGCg” value in assay [2] (25 μM EGCg) is “less tubes and lower cell count”. Moreover, the tubes entry in assay [2] (100 μM EGCg) is listed as “almost no tubes”.
